Results published in patent US20250289806A1, “COMPOUNDS FOR PROLIFERATIVE DISORDERS” (UNIVERSITY OF MIAMI, priority 2022, published 2025).
pIC50: −log10 of the molar value. Read-outs that look alike come from different tables or passages of the source.

Key:
[1] = target: T1, MYLK4 (Homo sapiens, UniProt Q86YV6); test: Enzymatic activity assay (Reaction Biology Corporation), MYLK4; format: biochemical
T1 construct: purchased Reaction Biology Corporation
T1 sequence (Q86YV6 1-388): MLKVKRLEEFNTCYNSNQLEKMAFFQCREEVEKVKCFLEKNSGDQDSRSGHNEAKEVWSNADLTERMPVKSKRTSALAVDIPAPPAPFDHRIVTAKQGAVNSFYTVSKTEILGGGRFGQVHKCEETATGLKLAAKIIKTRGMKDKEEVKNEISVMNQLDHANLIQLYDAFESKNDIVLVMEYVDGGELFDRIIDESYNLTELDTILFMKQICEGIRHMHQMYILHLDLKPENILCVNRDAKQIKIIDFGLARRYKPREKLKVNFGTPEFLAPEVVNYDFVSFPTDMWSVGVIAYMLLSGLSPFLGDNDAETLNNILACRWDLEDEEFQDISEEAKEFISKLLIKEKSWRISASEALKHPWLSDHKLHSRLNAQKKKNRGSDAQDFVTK
Procedure: (§1) All enzymatic assays and panel profiling studies are activity assays, which were carried out by Reaction Biology Corporation according to the company's protocols.

[2] = target: T2, STK17A (Homo sapiens, UniProt Q9UEE5); test: Enzymatic activity assay (Reaction Biology Corporation), STK17A; format: biochemical
T2 construct: purchased Reaction Biology Corporation
T2 sequence (Q9UEE5 1-414): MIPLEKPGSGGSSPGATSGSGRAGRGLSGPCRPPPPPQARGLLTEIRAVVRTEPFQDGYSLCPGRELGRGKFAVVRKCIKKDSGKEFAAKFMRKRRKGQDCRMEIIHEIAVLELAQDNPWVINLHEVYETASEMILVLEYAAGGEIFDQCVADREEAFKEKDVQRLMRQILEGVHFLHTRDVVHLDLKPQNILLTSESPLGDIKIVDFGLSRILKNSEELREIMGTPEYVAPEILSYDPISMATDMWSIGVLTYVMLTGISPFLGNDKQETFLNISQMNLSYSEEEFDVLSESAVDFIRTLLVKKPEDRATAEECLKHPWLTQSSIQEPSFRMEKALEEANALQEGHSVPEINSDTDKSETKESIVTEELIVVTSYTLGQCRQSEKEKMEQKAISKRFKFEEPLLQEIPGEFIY
Procedure: as §1

[3] = target: T3, DDR1 (Homo sapiens, UniProt Q08345); test: Enzymatic activity assay (Reaction Biology Corporation), DDR1; format: biochemical
T3 construct: purchased Reaction Biology Corporation
Procedure: as §1

[4] = system: HEK293T; test: Cell viability assay, HEK293T (non-cancer cell line); format: cell-based; conditions: Homo sapiens, HEK-293T
[5] = system: NALM-6 SF3B1 K666N; test: cells; conditions: Homo sapiens, NALM-6, 72 h
[6] = system: MOLT4; test: Cell viability assay, MOLT4; format: cell-based; conditions: Homo sapiens
[7] = system: SKMM2; test: Cell viability assay, SKMM2; format: cell-based; conditions: Homo sapiens, SK-MM-2
[8] = system: KMS12BM; test: Cell viability assay, KMS12BM; format: cell-based; conditions: Homo sapiens, KMS-12-BM
[9] = system: MDSL; test: cells; conditions: 72 h
[10] = system: HEL; test: Cell viability assay, HEL; format: cell-based; conditions: Homo sapiens
[11] = system: K562 SF3B1 K666N; test: cells; conditions: Homo sapiens, K562, 72 h
[12] = system: U266B1; test: Cell viability assay, U266B1; format: cell-based
[13] = system: SKNO-1; test: Cell viability assay, SKNO-1; format: cell-based
[14] = system: OCI-AML3; test: Cell viability assay, OCI-AML3; format: cell-based; conditions: Homo sapiens, OCI-AML-3
[15] = system: RPMI8226; test: Cell viability assay, RPMI8226; format: cell-based; conditions: Homo sapiens, RPMI-8226
[16] = system: MV-4-11; test: Cell viability assay, MV-4-11; format: cell-based; conditions: Homo sapiens, MV4-11
[17] = system: OPM2; test: Cell viability assay, OPM2; format: cell-based; conditions: Homo sapiens, OPM-2
[18] = system: KMS12PE; test: Cell viability assay, KMS12PE; format: cell-based; conditions: Homo sapiens, KMS-12-PE
[19] = system: LP1; test: Cell viability assay, LP1; format: cell-based; conditions: Homo sapiens, LP-1
[20] = system: MM-M1; test: Cell viability assay, MM-M1; format: cell-based
[21] = system: HL-60; test: Cell viability assay, HL-60; format: cell-based; conditions: Homo sapiens
[22] = system: SET-2; test: Cell viability assay, SET-2; format: cell-based; conditions: Homo sapiens
[23] = system: RIVA; test: Cell viability assay, RIVA; format: cell-based
[24] = system: NALM-6; test: cells; conditions: Homo sapiens, NALM-6, 72 h
[25] = system: TF1; test: Cell viability assay, TF1; format: cell-based; conditions: Homo sapiens, TF-1
[26] = system: MEC-1; test: Cell viability assay, MEC-1; format: cell-based; conditions: Homo sapiens, MEC1
[27] = system: THP-1; test: Cell viability assay, THP-1; format: cell-based; conditions: Homo sapiens
[28] = system: Kasumi-1; test: Cell viability assay, Kasumi-1; format: cell-based; conditions: Homo sapiens
[29] = system: K562; test: Cell viability assay, K562; format: cell-based; conditions: Homo sapiens
[30] = system: RS4; 11; test: Cell viability assay, RS4; 11; format: cell-based; conditions: Homo sapiens
[31] = system: HEL92.1.7; test: cells; conditions: Homo sapiens, HEL 92.1.7, 72 h
[32] = system: Jurkat; test: Cell viability assay, Jurkat; format: cell-based; conditions: Homo sapiens
[33] = system: BJAB; test: Cell viability assay, BJAB; format: cell-based; conditions: Homo sapiens
[34] = system: MOLM-13; test: Cell viability assay, MOLM-13; format: cell-based; conditions: Homo sapiens
[35] = enzymatic activity assay, read-out: IC50 STK17A
[36] = multiple myeloma, cell viability, 72 hours
[37] = lymphoma, cell viability, 72 hours
[38] = enzymatic activity assay, read-out: IC50 MYLK4
[39] = multiple myeloma (Example 90 table)

T3 sequence (Q08345 19-913): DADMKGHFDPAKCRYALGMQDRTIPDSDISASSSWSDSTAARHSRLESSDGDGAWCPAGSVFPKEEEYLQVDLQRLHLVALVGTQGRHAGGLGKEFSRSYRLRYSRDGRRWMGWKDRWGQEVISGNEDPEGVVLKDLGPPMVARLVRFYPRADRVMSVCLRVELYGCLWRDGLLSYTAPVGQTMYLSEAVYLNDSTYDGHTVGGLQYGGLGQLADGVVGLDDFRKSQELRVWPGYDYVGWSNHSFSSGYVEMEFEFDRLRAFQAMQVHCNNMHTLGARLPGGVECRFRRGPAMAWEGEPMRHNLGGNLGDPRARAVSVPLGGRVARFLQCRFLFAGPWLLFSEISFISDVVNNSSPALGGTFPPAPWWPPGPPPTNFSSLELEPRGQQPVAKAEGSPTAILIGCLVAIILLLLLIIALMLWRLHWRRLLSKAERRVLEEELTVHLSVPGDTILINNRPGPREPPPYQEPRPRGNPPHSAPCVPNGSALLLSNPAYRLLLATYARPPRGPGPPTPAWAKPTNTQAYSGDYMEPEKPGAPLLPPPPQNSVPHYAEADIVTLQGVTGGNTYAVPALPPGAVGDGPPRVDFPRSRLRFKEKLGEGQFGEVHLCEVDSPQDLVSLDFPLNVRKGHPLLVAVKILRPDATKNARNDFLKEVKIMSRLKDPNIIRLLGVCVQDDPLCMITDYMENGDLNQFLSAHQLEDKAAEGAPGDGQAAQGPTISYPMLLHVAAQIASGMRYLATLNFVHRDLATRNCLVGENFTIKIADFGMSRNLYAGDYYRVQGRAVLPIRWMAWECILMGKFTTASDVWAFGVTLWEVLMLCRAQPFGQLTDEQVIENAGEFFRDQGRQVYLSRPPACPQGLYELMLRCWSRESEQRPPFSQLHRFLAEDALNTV

SMILES: c1cc(-c2ccc3nc(N4CCCC4)ncc3c2)nc(Nc2ccc(N3CCNCC3)nc2)n1 [Example 4]
- pIC50 [1]: > 7.30
- pIC50 [2, 35]: > 7.30

SMILES: c1cc(-c2ccc3nc(N4CCCC4)ncc3c2)nc(Nc2ccc(N3CCOCC3)cc2)n1 [Example 2]
- pIC50 [1]: > 7.30
- pIC50 [2, 35]: > 7.30

SMILES: CC(C)NC(=O)c1cccc(Nc2nccc(-c3ccc4nc(N5CCCC5)ncc4c3)n2)c1 [Example 6]
- pIC50 [2, 35]: < 7.00

SMILES: c1cc(-c2ccc3nc(N4CCCC4)ncc3c2)nc(Nc2ccc(N3CCNCC3)cc2)n1 [Example 1, N-(4-(piperazin-1-yl)phenyl)-4-(2-(pyrrolidin-1-yl)quinazolin-6-yl)pyrimidin-2-amine]
- pIC50 [1]: > 7.30
- pIC50 [2]: 7.00 to 7.30

SMILES: CC(C)NC(=O)c1ccc(Nc2nccc(-c3ccc4nc(N5CCOCC5)ncc4c3)n2)cc1 [Example 20]
- pIC50 [1]: 7.00 to 7.30
- pIC50 [2, 35]: > 7.30
- pIC50 [3]: < 7.00

SMILES: O=C(NC1CCNCC1)c1ccc(Nc2nccc(-c3ccc4nc(N5CCCC5)ncc4c3)n2)cc1 [Example 5]
- pIC50 [2, 35]: < 7.00

SMILES: CC(C)NC(=O)c1ccc(Nc2nccc(-c3ccc4nc(N5CCCC5)ncc4c3)n2)cc1 [Example 7]
- pIC50 ([4]; non-hematological cell line, cell viability, 72 hours): < 4.00
- pIC50 [5]: 6.04
- pIC50 ([6]; MOLT-4, MOLT4, acute lymphoblastic leukemia, cell viability, 72 hours): 4.79
- pIC50 ([7]; SKMM2, multiple myeloma, cell viability, 72 hours): < 4.00
- pIC50 [8, 36]: 5.61
- pIC50 [9]: < 4.00
- pIC50 [1]: 7.00 to 7.30
- pIC50 ([10]; acute myeloid leukemia, cell viability, 72 hours): 5.44
- pIC50 [11]: 6.74
- pIC50 ([12]; U266B1, multiple myeloma, cell viability, 72 hours): < 4.00
- pIC50 ([13]; SKNO-1, acute myeloid leukemia, cell viability, 72 hours): 4.77
- pIC50 ([14]; OCI-AML3, acute myeloid leukemia, cell viability, 72 hours): < 4.00
- pIC50 ([15]; RPMI8226, multiple myeloma, cell viability, 72 hours): 5.05
- pIC50 ([16]; MV-4-11, acute myeloid leukemia, cell viability, 72 hours): 5.43
- pIC50 ([17]; OPM2, multiple myeloma, cell viability, 72 hours): 4.64
- pIC50 [18, 36]: < 4.00
- pIC50 ([19]; LP1, multiple myeloma, cell viability, 72 hours): 4.50
- pIC50 ([20]; MM-M1, multiple myeloma, cell viability, 72 hours): < 4.00
- pIC50 ([21]; HL-60, acute myeloid leukemia, cell viability, 72 hours): < 4.00
- pIC50 ([22]; SET-2, acute myeloid leukemia, cell viability, 72 hours): 5.43
- pIC50 [23, 37]: < 4.00
- pIC50 [24]: 5.26
- pIC50 ([25]; TF1, acute myeloid leukemia, cell viability, 72 hours): < 4.00
- pIC50 ([26]; MEC-1, lymphoma, cell viability, 72 hours): < 4.00
- pIC50 [2, 35]: > 7.30
- pIC50 ([27]; THP-1, acute myeloid leukemia, cell viability, 72 hours): 4.70
- pIC50 ([28]; Kasumi-1, acute myeloid leukemia, cell viability, 72 hours): 5.09
- pIC50 ([29]; K562, chronic myeloid leukemia, cell viability, 72 hours): 5.32
- pIC50 ([30]; RS4, 11, acute lymphoblastic leukemia, cell viability, 72 hours): 5.08
- pIC50 [31]: 6.11
- pIC50 ([32]; acute lymphoblastic leukemia, cell viability, 72 hours): 4.59
- pIC50 [33, 37]: < 4.00
- pIC50 ([34]; MOLM-13, acute myeloid leukemia, cell viability, 72 hours): 6.03

SMILES: OCCn1cc(Nc2nccc(-c3ccc4nc(N5CCOCC5)ncc4c3)n2)cn1 [Example 28]
- pIC50 [1, 38]: > 7.30
- pIC50 [2, 35]: > 7.30

SMILES: c1cc(-c2ccc3nc(N4CCCC4)ncc3c2)nc(Nc2cnn(C3CCNCC3)c2)n1 [Example 3]
- pIC50 [1, 38]: > 7.30
- pIC50 [2, 35]: > 7.30
- pIC50 [3]: 7.00 to 7.30

SMILES: c1cc(-c2ccc3nc(N4CCOCC4)ncc3c2)nc(Nc2ccc(N3CCNCC3)cc2)n1 [Example 26]
- pIC50 [1]: > 7.30
- pIC50 [2, 35]: > 7.30

SMILES: c1cc(-c2ccc3nc(N4CCOCC4)ncc3c2)nc(Nc2cnn(C3CCNCC3)c2)n1 [Example 27]
- pIC50 ([4]; non-hematological cell line (Example 90 table)): < 4.00
- pIC50 ([6]; MOLT-4, acute lymphoblastic leukemia (Example 90 table)): < 4.00
- pIC50 ([7]; SKMM2, multiple myeloma (Example 90 table)): 5.18
- pIC50 [8, 39]: 5.55
- pIC50 [1, 38]: > 7.30
- pIC50 ([10]; acute myeloid leukemia (Example 90 table)): < 4.00
- pIC50 ([12]; U266B1, multiple myeloma (Example 90 table)): 4.90
- pIC50 ([13]; SKNO-1, acute myeloid leukemia (Example 90 table)): 4.83
- pIC50 ([14]; OCI-AML3, acute myeloid leukemia (Example 90 table)): 6.05
- pIC50 ([15]; RPMI8226, multiple myeloma (Example 90 table)): 5.57
- pIC50 ([16]; MV-4-11, acute myeloid leukemia (Example 90 table)): 6.49
- pIC50 ([17]; OPM2, multiple myeloma (Example 90 table)): 5.16
- pIC50 [18, 39]: 5.55
- pIC50 ([19]; LP1, multiple myeloma (Example 90 table)): 5.96
- pIC50 ([20]; MM-M1, multiple myeloma (Example 90 table)): 5.09
- pIC50 ([21]; HL-60, HL60, acute myeloid leukemia (Example 90 table)): 5.30
- pIC50 ([22]; SET-2, acute myeloid leukemia (Example 90 table)): 6.19
- pIC50 ([23]; lymphoma (Example 90 table)): 5.04
- pIC50 ([25]; TF1, acute myeloid leukemia (Example 90 table)): 4.82
- pIC50 ([26]; MEC-1, lymphoma (Example 90 table)): 4.85
- pIC50 [2, 35]: > 7.30
- pIC50 ([27]; THP-1, acute myeloid leukemia (Example 90 table)): 5.94
- pIC50 ([28]; Kasumi-1, acute myeloid leukemia (Example 90 table)): 6.28
- pIC50 [3]: > 7.30
- pIC50 ([29]; K562, chronic myeloid leukemia (Example 90 table)): 5.06
- pIC50 ([30]; RS4-11, RS411, acute lymphoblastic leukemia (Example 90 table)): 5.00
- pIC50 ([32]; acute lymphoblastic leukemia (Example 90 table)): 5.21
- pIC50 ([33]; lymphoma (Example 90 table)): 4.92
- pIC50 ([34]; MOLM-13, acute myeloid leukemia (Example 90 table)): 6.71

SMILES: OCCN1CCC(n2cc(Nc3nccc(-c4ccc5nc(N6CCOCC6)ncc5c4)n3)cn2)CC1 [Example 29]
- pIC50 [2, 35]: > 7.30
- pIC50 [3]: > 7.30
